# Reference: patent US7635691B2, “Use of CDP-choline for the prophylactic treatment of cerebral ischemia” (Ferrer Internacional, S.A., priority 2000, dated 2009)
# Tested on: caspases 1, 2, 3, 6 and 8
# Experiment: Caspase expression (apoptosis markers) after permanent middle cerebral artery occlusion, model of cortical cerebral ischemia in the rat
# Type: in vivo
# Protocol: The effect of CDP-Choline on deferred nerve cell death (apoptosis) has been assessed in a model of cortical cerebral ischemia in the rat in accordance with the following experimental protocol:
# All cerebral infarction tests were performed in male Sprague-Dawley rats weighing 220-270 g. Animals were housed, with free access to food and water, in temperature- and humidity-controlled rooms with a 12/12 h light-dark cycle.
# Cerebral ischemia was induced by a permanent proximal occlusion of the middle cerebral artery using electrocoagulation. Under deep anesthesia, the rat head was clipped and an incision was made between the left ear and the left eye. Then, the cranium was exposed by sectioning the temporal muscle. Craniotomy was performed using a 1-2 mm drill behind the scaly fissure. The dura mater was drilled in order to expose the middle cerebral artery arm which was permanently coagulated.
# Rats were randomly divided into three groups:
# (a) After 30 minutes of ischemia, the animals in this group were treated with CDP-Choline (500 mg/kg) in 0.9% sterile physiologic saline (0.1 ml) administered intraperitoneally. This group is depicted in FIGS. 1 through 5 as “After.”
# (b) Since 24 hours before ischemia and after 30 minutes of ischemia, the animals in this group received the same treatment as in group (a). This group is depicted in FIGS. 1 through 5 as “Before.”
# (c) The animals in this group were used as control. After ischemia, they were treated with 0.9% physiologic saline vehicle (0.1 ml) administered intraperitoneally. This group is depicted in FIGS. 1 through 5 as “Control.”
# The animals were allowed to recover at different times (30 min and 1, 4, 8, 12, 24 and 48 hours) before terminal anesthesia with ethyl ether. […]
# For assessment of the effect of treatment, the expression of caspases 1, 2, 3, 6 and 8, as markers of apoptosis process, was measured 12 hours after infarction induction, whose results are shown in FIGS. 1, 2, 3, 4, and 5, respectively. […]
smiles,measurement,setting,value
"C[N+](C)(C)CCOP(=O)(O)OP(=O)([O-])OC[C@H]1O[C@@H](n2ccc(N)nc2=O)[C@H](O)[C@@H]1O [CDP-Choline, cytidine-diphosphate-choline]","caspase level, treatment before and after ischemia compared with treatment only after ischemia","500 mg/kg intraperitoneally from 24 hours before ischemia and 30 minutes after ischemia ('Before') vs only 30 minutes after ischemia ('After'), 12 hours after infarction induction",decreases caspase level more significantly than when administered only after infarction induction
same,"expression of caspases 1, 2, 3, 6 and 8 as markers of apoptosis process, treated vs control","male Sprague-Dawley rats, CDP-Choline 500 mg/kg intraperitoneally, groups 'After' and 'Before' vs saline control, measured 12 hours after infarction induction, figures in immunofluorescence units",significant differences between treated and control animals
same,nerve cell apoptosis in the penumbra area,"summary statement in the description, rat focal ischemia model",reduces nerve cell apoptosis in the penumbra area
